Data set [1] relates to 22Rv1 cells. Nature of the data set: MTT cell growth inhibition, 22Rv1. Particulars: MTT.
Data set [2] has as its system PC-3 cells. Kind of data set: MTT cell growth inhibition, PC-3.
Method: (§1) MDA PCa 2b was seeded at the same density in medium BRFF-HPC1 (Athena Enzyme Systems, Baltimore, Md., USA) supplemented with 20% FBS. After overnight incubation, the medium was changed to a fresh medium containing different concentrations of test compounds diluted from stock DMSO solution. The final concentration of DMSO is 0.5%. After 72 h of incubation with test compounds, 20 μL of 3-(4,5-dimethyl thiazol-2-yl)-2,5-diphenyltetrazolium bromide (MTT) solution (5 mg/mL in PBS) were added to each well and incubated further for 2 h. Next, the supernatant was aspirated and the MTT formazan formed by metabolically viable cells was dissolved in 100 μL of isopropanol. The plates were mixed for 30 min, and the absorbance was measured at 600 nm on a plate reader (FLUOstar OPTIMA, BMG LabTech). All samples were in triplicate. The IC50 values were determined from dose-response curves by nonlinear regression using PRISM v5.00 (GraphPad Software Inc, La Jolla, Calif., USA).
(§2) The in vitro cytotoxicity of 1-20 were evaluated by MTT assays in a panel of prostate cancer cell lines, including LNCaP, MDA PCa 2b, 22Rv1, C4-2B and PC-3.
Data set [3] concerns LNCaP cells. Kind of data set: MTT cell growth inhibition, LNCaP.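 Note: MTT formazan absorbance at 600 nm read after 72 h of compound exposure, IC50 fitted by nonlinear regression of dose-response curves, samples run in triplicate.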
Method: as §1, §2
In data set [4] the test system is C4-2B cells. Nature of the data set: MTT cell growth inhibition, C4-2B.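 Note: cells treated with a dilution series for 72 h, then MTT added and absorbance read at 600 nm, IC50 fitted from dose-response curves by nonlinear regression.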
Data set [5] has as its system PC-3 cells.
Method: as §1, §2
The mark [6] stands for this setting: read-out: Cellular IC50 (μM) 22Rv1, Table 8.
Where [7] appears, read: read-out: Cellular IC50 (μM) PC3, Table 8.
[8] abbreviates: read-out: Cellular IC50 (μM) LNCaP, Table 8.
Where [9] appears, read: read-out: Cellular IC50 (μM) C4-2B, Table 8.
[10] abbreviates: read-out: IC50 (μM) 22Rv1, Table 1, 72 h.
Where [11] appears, read: read-out: IC50 (μM) PC-3, Table 1, 72 h, maximum tested concentration 50 μM.
The mark [12] stands for this setting: read-out: IC50 (μM) LNCaP, Table 1, 72 h.
The mark [13] stands for this setting: read-out: IC50 (μM) C4-2B, Table 1, 72 h.
The mark [14] stands for this setting: read-out: Cellular IC50 (μM) 22Rv1, Table 9.
The mark [15] stands for this setting: read-out: Cellular IC50 (μM) PC-3, Table 9.
The mark [16] stands for this setting: read-out: Cellular IC50 (μM) LNCaP, Table 9.
Setting [17] is: read-out: Cellular IC50 (μM) C4-2B, Table 9.

The record followed here is patent publication US8470889B2 (TRT Pharma Inc., priority 2008, dated 2013).

SMILES strings stand for the structures. Where two headings read alike, the source gives them in different places. Some results are limits rather than exact numbers.

In the case of `COc1cc(/C=C/C(=O)/C(=C/c2ccc3ccccc3n2)C(=O)/C=C/C2=C(C)CCCC2(C)C)ccc1O` [Compound 20], the IC50 was determined as 5.1 µM in data set [1] (read-out: Cellular IC50 (μM) 22Rv1, Table 2, 72 h); 15.2 µM in data set [2] (read-out: Cellular IC50 (μM) PC-3, Table 2, 72 h, max tested 50 μM (β-ionone 150 μM)); 8.5 µM in data set [3] (read-out: Cellular IC50 (μM) LNCaP, Table 2, 72 h); 5.3 µM in data set [4] (read-out: Cellular IC50 (μM) C4-2B, Table 2, 72 h).

For `COc1cc(OC)c(OC)cc1/C=C/C(=O)/C=C/C1=C(C)C(O)CCC1(C)C` (stereo not drawn) [Compound B73], the IC50 was found to be 5.4 µM in data set [1] (setting [6]), 9.5 µM in data set [2] (setting [7]), 3.7 µM in data set [3] (setting [8]) and 3.2 µM in data set [4] (setting [9]).

On to `CC1=C(/C=C/C(=O)/C=C(O)/C=C/c2ccc(O)cc2)C(C)(C)CCC1` [Compound 5], for which the IC50 in data set [1] (setting [10]) worked out at 12.6 µM; in data set [2] (setting [11]) it was 50.6 µM; in data set [3] (setting [12]) it was 18.6 µM; in data set [4] (setting [13]) it was 5.7 µM.

On to `Cc1ccc2[nH]cc(/C=C/C(=O)/C=C/C3=CC(O)CCC3(C)C)c2c1` (stereo not drawn) [Compound B82], for which the IC50 in data set [1] (setting [14]) came out at 7.3 µM; in data set [2] (setting [15]), 10.6 µM; in data set [3] (setting [16]), 3.8 µM; in data set [4] (setting [17]) it was 6.8 µM.

Take `CC1(C)CCC(O)C=C1/C=C/C(=O)/C=C/c1c(-c2ccccc2)[nH]c2ccccc12` (stereo not drawn) [Compound B87]: the IC50 in data set [1] (setting [14]) was found to be 12.6 µM; in data set [2] (setting [15]), 13.7 µM; in data set [3] (setting [16]) it was 3.2 µM; in data set [4] (setting [17]), 2.2 µM.

As for `CC1=C(/C=C/C(=O)/C=C/c2ccc(F)cc2F)C(C)(C)CCC1O` (stereo not drawn) [Compound B67], the IC50 turned out to be 4.8 µM in data set [1] (setting [6]), 7.5 µM in data set [2] (setting [7]), 4.3 µM in data set [3] (setting [8]) and 2.1 µM in data set [4] (setting [9]).

Turning to `Cc1cccc2c(/C=C/C(=O)/C=C/C3=CC(O)CCC3(C)C)c[nH]c12` (stereo not drawn) [Compound B86], the IC50 was 5.3 µM in data set [1] (setting [14]), 6.4 µM in data set [2] (setting [15]), 2.6 µM in data set [3] (setting [16]) and 3.6 µM in data set [4] (setting [17]).

`COc1ccc(/C=C/C(=O)/C=C/C2=C(C)C(O)CCC2(C)C)cc1` (stereo not drawn) [Compound B53]: the IC50 in data set [1] (setting [6]) turned out to be 20.3 µM; in data set [3] (setting [8]) it was 13.3 µM; in data set [4] (setting [9]) it was 10.3 µM. The “Cellular IC50 (μM) PC3” value in data set [2] (Table 8) is “Int”.

Consider `COc1cc(/C=C/C(O)=C/C(=O)/C=C/C2=C(C)CCCC2(C)C)cc(OC)c1OC` [Compound 7], for which the IC50 is 17.1 µM in data set [1] (setting [10]), over 50 µM in data set [2] (setting [11]), 21.4 µM in data set [3] (setting [12]) and 11.9 µM in data set [4] (setting [13]).

Take `CC1=C(/C=C/C(=O)/C=C/c2cccc(C(F)(F)F)c2)C(C)(C)CCC1` [Compound B5]: the figures for the IC50 in data set [3] (read-out: IC50 in LNCaP cells) and in data set [5] were 2.8 µM and 7.7 µM, respectively.

For the compound `COc1cc(OC)c(/C=C/C(=O)/C=C/C2=C(C)C(O)CCC2(C)C)c(OC)c1` (stereo not drawn) [Compound B74], the IC50 was 21 µM in data set [1] (setting [6]), over 25 µM in data set [2] (setting [7]), 15.5 µM in data set [3] (setting [8]) and 11.6 µM in data set [4] (setting [9]).

For `CC1(C)CCC(O)C=C1/C=C/C(=O)/C=C/c1cc2ccccc2s1` (stereo not drawn) [Compound B93], the IC50 in data set [1] (setting [14]) came to 17.6 µM; in data set [2] (setting [15]), 23.8 µM; in data set [3] (setting [16]) it was 12.9 µM; in data set [4] (setting [17]) it was 9.9 µM.

In the case of `COc1ccc(/C=C/C(=O)/C=C/C2=C(C)C(O)CCC2(C)C)cc1O` (stereo not drawn) [Compound B69], the IC50 was found to be 19.1 µM in data set [1] (setting [6]), 53.9 µM in data set [2] (setting [7]), 12.3 µM in data set [3] (setting [8]) and 12 µM in data set [4] (setting [9]).

As to `CC1(C)CCC(O)C=C1/C=C/C(=O)/C=C/c1ccc2[nH]ccc2c1` (stereo not drawn) [Compound B89], the IC50 in data set [1] (setting [14]) turned out to be 2.3 µM; in data set [2] (setting [15]) it was 3.1 µM; in data set [3] (setting [16]), 1.5 µM; in data set [4] (setting [17]), 1.6 µM.

As to `CC1(C)CCC(O)C=C1/C=C/C(=O)/C=C/c1ccc2c(c1)CCO2` (stereo not drawn) [Compound B79], the IC50 was 10.4 µM in data set [1] (setting [14]), 14.8 µM in data set [2] (setting [15]), 4.7 µM in data set [3] (setting [16]) and 5.6 µM in data set [4] (setting [17]).

With `CC1=C(/C=C/C(=O)/C=C/c2ccc(N(CCO)CCO)cc2)C(C)(C)CCC1O` (stereo not drawn) [Compound B62], the IC50 in data set [1] (setting [6]) came out at 4.3 µM; in data set [2] (setting [7]), 6.9 µM; in data set [3] (setting [8]), 1.4 µM; in data set [4] (setting [9]), 1.7 µM.

`CC1(C)CCC(O)C=C1/C=C/C(=O)/C=C/c1ccnc2ccccc12` (stereo not drawn) [Compound B96]: the IC50 turned out to be 1.2 µM in data set [1] (setting [14]), 2.2 µM in data set [2] (setting [15]), 1.5 µM in data set [3] (setting [16]) and 1.5 µM in data set [4] (setting [17]).

For `CC1=C(/C=C/C(=O)/C=C/c2ccc(OC(F)(F)C(F)F)cc2)C(C)(C)CCC1O` (stereo not drawn) [Compound B55], the IC50 in data set [1] (setting [6]) was determined as 7.7 µM; in data set [2] (setting [7]) it was 12.3 µM; in data set [3] (setting [8]), 5.4 µM; in data set [4] (setting [9]), 4.6 µM.

Regarding `CC1=C(/C=C/C(=O)/C=C/c2ccc(-c3ccccc3)cc2)C(C)(C)CCC1O` (stereo not drawn) [Compound B57], the IC50 in data set [1] (setting [6]) came out at 5.2 µM; in data set [2] (setting [7]), 11.9 µM; in data set [3] (setting [8]), 2.9 µM; in data set [4] (setting [9]), 6 µM.

Consider `Cn1cc(/C=C/C(=O)/C=C/C2=CC(O)CCC2(C)C)c2ccccc21` (stereo not drawn) [Compound B88], for which the IC50 was 21 µM in data set [1] (setting [14]), 54.9 µM in data set [2] (setting [15]), 9.4 µM in data set [3] (setting [16]) and 11.8 µM in data set [4] (setting [17]).
